Patent US20100113392A1, “METHODS OF USING SAHA AND BORTEZOMIB FOR TREATING MULTIPLE MYELOMA” (priority 2006, published 2010)

How the values were obtained:
[1] = tested on: relapsed and refractory multiple myeloma; experiment: Phase I clinical trial of oral Vorinostat plus Bortezomib: response; type: in vivo, human; conditions: dexamethasone 20 mg p.o. days 4-8 added to Vorinostat and Bortezomib for nonresponders
[2] = Phase I clinical trial of oral Vorinostat plus Bortezomib: MTD, safety and tolerability; type: in vivo, human; conditions: Vorinostat 500 mg daily with Bortezomib […]^2, cycle 1, 2 patients
Experimental: This was a multicenter, open label, escalating dose, Phase I study of Vorinostat in combination with intravenous Bortezomib injection in patients eligible for Bortezomib therapy. […] Patients on Dose Levels 1-5 were administered Bortezomib as an intravenous (IV) bolus on Days 1, 4, 8 and 11.
At the beginning of the study, five 3-patient cohorts were evaluated at various dose levels as outlined in the Table 1 and Table 2 below.
In the absence of treatment delays due to adverse events, treatment continued for 8-cycles or until one of the following criteria applied: • a) disease progression • b) intercurrent illness that prevents further administration of treatment • c) unacceptable adverse events • d) patient decides to withdraw from the study • e) general or specific changes in the patient's condition render the patient unacceptable for further treatment in the judgment of the investigator. • f) if the patient achieves a complete remission, they continue on the study for a total of 8 cycles.
Further studies enrolled up to 40 adult patients with multiple myeloma, relapsed or refractory disease. One treatment cycle was 3 weeks or 21 days. […] Although the current FDA approved Bortezomib dose for relapsed myeloma patients to be […], if toxicity occurred, the subsequent dose of Bortezomib was going to be decreased to 0.7 mg/m^2. […] Other Bortezomib dose to be tested was 1.3 mg/m^2.

[3] = Pharmacokinetics of Vorinostat in the Phase I trial

| Compound | effect of added dexamethasone on response [1] | toxicities defining the MTD in cycle 1 [2] | effect of administration after Bortezomib on pharmacokinetics ([3]; Vorinostat given after Bortezomib) | dose dependence of pharmacokinetics ([3]; single oral dose, 100-500 mg) |
| --- | --- | --- | --- | --- |
| 9-fluoro-1′-beta,17,21-trihydroxy-16-alpha-methylpregna-1,4-diene-3,20-dione [dexamethasone] | no upgrade in response | – | – | – |
| O=C(CCCCCCC(=O)Nc1ccccc1)NO [Vorinostat, N-Hydroxy-N′-phenyl octanediamide] | – | grade 4 prolonged QT interval and grade 4 fatigue | did not affect pharmacokinetics | linear |
